# Measured values as given in patent US8420667B2, “Isoquinolinone derivatives as NK3 antagonists” (H. Lundbeck A/S, priority 2008, dated 2013).
# Biological target: T1, NK3 receptor (Homo sapiens, UniProt P29371)
# T1 sequence (P29371 1-465): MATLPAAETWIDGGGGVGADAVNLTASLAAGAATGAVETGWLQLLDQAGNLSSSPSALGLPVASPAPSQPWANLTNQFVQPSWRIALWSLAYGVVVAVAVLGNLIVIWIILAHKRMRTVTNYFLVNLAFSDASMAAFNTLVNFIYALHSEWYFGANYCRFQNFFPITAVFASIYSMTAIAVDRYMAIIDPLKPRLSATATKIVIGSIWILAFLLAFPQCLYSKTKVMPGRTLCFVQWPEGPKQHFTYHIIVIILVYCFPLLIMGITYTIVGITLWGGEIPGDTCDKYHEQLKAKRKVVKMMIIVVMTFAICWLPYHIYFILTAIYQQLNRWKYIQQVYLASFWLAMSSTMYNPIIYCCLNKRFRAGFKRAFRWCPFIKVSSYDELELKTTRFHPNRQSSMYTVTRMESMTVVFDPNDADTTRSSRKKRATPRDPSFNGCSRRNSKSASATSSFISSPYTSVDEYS
# Assay: NK3 receptor affinity (Ki)
# Assay type: binding
# Settings: not given
row,Ki,SMILES
1,250 nM,"CC[C@H](NC(=O)c1c(C)n(-c2ccccc2)c(=O)c2c(Cl)cccc12)c1ccc(Cl)cc1 [Example 1as, 8-Chloro-3-methyl-1-oxo-2-phenyl-1,2-dihydro-isoquinoline-4-carboxylic acid [(S)-1-(4-chloro-phenyl)-propyl]-amide]"
2,180 nM,"CC[C@H](NC(=O)c1c(C)n(-c2ccccc2)c(=O)c2c(Cl)cccc12)c1ccc(F)cc1 [Example 1at, 8-Chloro-3-methyl-1-oxo-2-phenyl-1,2-dihydro-isoquinoline-4-carboxylic acid [(S)-1-(4-fluoro-phenyl)-propyl]-amide]"
3,270 nM,"CC[C@H](NC(=O)c1c(C)n(-c2ccccc2)c(=O)c2c(Cl)cccc12)c1ccccc1F [Example 1au, 8-Chloro-3-methyl-1-oxo-2-phenyl-1,2-dihydro-isoquinoline-4-carboxylic acid [(S)-1-(2-fluoro-phenyl)-propyl]-amide]"
4,39 nM,"CC[C@H](NC(=O)c1c(C)n(-c2ccccc2)c(=O)c2c(Cl)cccc12)c1cccc(Cl)c1 [Example 1av, 8-Chloro-3-methyl-1-oxo-2-phenyl-1,2-dihydro-isoquinoline-4-carboxylic acid [(S)-1-(3-chloro-phenyl)-propyl]-amide]"
5,59 nM,"Cc1c(C(=O)N[C@H](c2cccc(Cl)c2)C2CC2)c2cccc(Cl)c2c(=O)n1-c1ccccc1 [Example 1aw, 8-Chloro-3-methyl-1-oxo-2-phenyl-1,2-dihydro-isoquinoline-4-carboxylic acid [(S)-(3-chloro-phenyl)-cyclopropyl-methyl]-amide]"
6,150 nM,"Cc1c(C(=O)N[C@H](c2ccc(Cl)cc2)C2CC2)c2cccc(Cl)c2c(=O)n1-c1ccccc1 [Example 1ax, 8-Chloro-3-methyl-1-oxo-2-phenyl-1,2-dihydro-isoquinoline-4-carboxylic acid [(S)-(4-chloro-phenyl)-cyclopropyl-methyl]-amide]"
7,47 nM,"CC[C@H](NC(=O)c1c(C)n(-c2ccccc2)c(=O)c2c(Cl)cccc12)c1cccc(F)c1 [Example 1ay, 8-Chloro-3-methyl-1-oxo-2-phenyl-1,2-dihydro-isoquinoline-4-carboxylic acid [(S)-1-(3-fluoro-phenyl)-propyl]-amide]"
8,55 nM,"Cc1c(C(=O)N[C@H](c2ccc(F)cc2)C2CC2)c2cccc(Cl)c2c(=O)n1-c1ccccc1 [Example 1ba, 8-Chloro-3-methyl-1-oxo-2-phenyl-1,2-dihydro-isoquinoline-4-carboxylic acid [(S)-cyclopropyl-(4-fluoro-phenyl)-methyl]-amide]"
9,240 nM,"CC[C@H](NC(=O)c1c(C)n(-c2ccccc2)c(=O)c2c(Cl)cccc12)c1ccccc1Cl [Example 1bb, 8-Chloro-3-methyl-1-oxo-2-phenyl-1,2-dihydro-isoquinoline-4-carboxylic acid [(S)-1-(2-chloro-phenyl)-propyl]-amide]"
10,49 nM,"Cc1c(C(=O)N[C@H](c2ccccc2Cl)C2CC2)c2cccc(Cl)c2c(=O)n1-c1ccccc1 [Example 1bd, 8-Chloro-3-methyl-1-oxo-2-phenyl-1,2-dihydro-isoquinoline-4-carboxylic acid [(S)-(2-chloro-phenyl)-cyclopropyl-methyl]-amide]"
11,45 nM,"Cc1c(C(=O)N[C@H](c2ccccc2F)C2CC2)c2cccc(Cl)c2c(=O)n1-c1ccccc1 [Example 1be, 8-Chloro-3-methyl-1-oxo-2-phenyl-1,2-dihydro-isoquinoline-4-carboxylic acid [(S)-cyclopropyl-(2-fluoro-phenyl)-methyl]-amide]"
12,31 nM,"Cc1c(C(=O)N[C@H](c2cccc(F)c2)C2CCC2)c2cccc(Cl)c2c(=O)n1-c1ccccc1 [Example 1bh, 8-Chloro-3-methyl-1-oxo-2-phenyl-1,2-dihydro-isoquinoline-4-carboxylic acid [(S)-cyclobutyl-(3-fluoro-phenyl)-methyl]-amide]"
13,31 nM,"Cc1c(C(=O)N[C@H](c2ccc(F)cc2)C2CCC2)c2cccc(Cl)c2c(=O)n1-c1ccccc1 [Example 1bi, 8-Chloro-3-methyl-1-oxo-2-phenyl-1,2-dihydro-isoquinoline-4-carboxylic acid [(S)-cyclobutyl-(4-fluoro-phenyl)-methyl]-amide]"
14,810 nM,"Cc1c(C(=O)N[C@@H](c2cccc(F)c2)C2CC2)c2cccc(Cl)c2c(=O)n1-c1ccccc1 [Example 1bl, 8-Chloro-3-methyl-1-oxo-2-phenyl-1,2-dihydro-isoquinoline-4-carboxylic acid [(R)-cyclopropyl-(3-fluoro-phenyl)-methyl]-amide]"
15,150 nM,"Cc1c(C(=O)NC(c2ccccc2F)C2CCC2)c2cccc(Cl)c2c(=O)n1-c1ccccc1 (stereo not drawn) [Example 1bo, 8-Chloro-3-methyl-1-oxo-2-phenyl-1,2-dihydro-isoquinoline-4-carboxylic acid [cyclobutyl-(2-fluoro-phenyl)-methyl]-amide]"
16,15 nM,"Cc1c(C(=O)N[C@H](c2cccc(F)c2)C2CC2)c2cccc(F)c2c(=O)n1-c1ccccc1 [Example 7e, 8-Fluoro-3-methyl-1-oxo-2-phenyl-1,2-dihydro-isoquinoline-4-carboxylic acid [(S)-cyclopropyl-(3-fluoro-phenyl)-methyl]-amide]"
17,10 nM,"Cc1c(C(=O)N[C@H](c2cccc(F)c2)C2CCC2)c2cccc(F)c2c(=O)n1-c1ccccc1 [Example 7h, 8-Fluoro-3-methyl-1-oxo-2-phenyl-1,2-dihydro-isoquinoline-4-carboxylic acid [(S)-cyclobutyl-(3-fluoro-phenyl)-methyl]-amide]"

# Biological target: T1, NK3 receptor
# Assay: not given
# Settings: clinical trials; cited from earlier work
row,SMILES,effect on cognitive behaviour of schizophrenics
1,CC[C@H](NC(=O)c1c(O)c(-c2ccccc2)nc2ccccc12)c1ccccc1 [talnetant],ameliorate the cognitive behaviour of schizophrenics
